These are literature values, as cited in publication PMC8273890, “Development of [^18F]AldoView as the First Highly Selective Aldosterone Synthase PET Tracer for Imaging of Primary Hyperaldosteronism” (Journal of Medicinal Chemistry, 2021).

A word on the IC50: it is the concentration needed to halve the response being measured.

One data set deals with human CYP11B2. Also on record: method as in PMID 26005536. To be noted: cited from earlier work.
For the next data set, the system named is hCYP11B1. Also noted: method as in PMID 26005536. To be noted: read-out: IC50 CYP11B1; cited from earlier work.

Take `Fc1cncc(-c2nc3cc(F)c(F)cc3n2C2CC2)c1` [Compound 3, 1-Cyclopropyl-5,6-difluoro-2-(5-fluoropyridin-3-yl)-1H-benzo[d]imidazole, reference compound]: the half-maximal inhibitory concentration (IC50) is 4.7 nM in the data set with human CYP11B2 and 435 nM in the data set on hCYP11B1.
